Measurements published in patent US20230225988A1, “ANTIVIRAL USE OF CALIXARENES” (CEBINA GmbH, priority 2020, published 2023).
Where two headings read alike, the source gives them in different places.

What was measured:
HCoV 229E = details: Geller et al., Antiviral Research 2010; cited from earlier work
influenza H1N1 [1] = format: cell-based; details: CX-1 500 μM apical
SARS-CoV-2 [2] = assay: Microscopic examination of the cytopathogenic effect in SARS-CoV-2 infected Vero E6 cells
SARS-CoV-2 [3] = assay: PCR quantification of SARS-CoV-2 viral particles in supernatants of infected Vero E6 cells; details: for viral particle number, Sample #1 / viral particle number, Sample #2 / viral particle number, Sample #3: Vero E6, MOI 0.01; for viral particle number, average: average of triplicate
[4] = test system: human nasal epithelial cells (MucilAir Pool); details: non-infected cells, LDH release from basal wash
influenza H1N1 [5] = format: cell-based; details: day 4 post infection, CX-1 500 μM versus buffer treated cells (FIG. 5)
[6] = 24 h post-infection, versus buffer treated cells (FIG. 4 panel A)
[7] = 48 h post infection, versus buffer treated cells (FIG. 4 panel B)
[8] = CX-1 500 μM, 24 h post-infection, prophylactic setting
[9] = CX-1 500 μM, 48 h post-infection, prophylactic setting

Compound	activity against HCoV 229E (HCoV 229E)	decrease in viral genome copy (influenza H1N1 [1]; [6]) [log]	reduction in viral genome copy (influenza H1N1 [1]; [6]) [%]	decrease in viral genome copy (influenza H1N1 [1]; [7]) [log]	reduction in viral genome copy (influenza H1N1 [1]; [7]) [%]	protection of infected cells from dying (cytopathogenic effect, microscopy) (SARS-CoV-2 [2]; prophylactic setting, 500, 100 or 20 μM, 48 h post infection (FIG. 1))	protection of infected cells from dying (cytopathogenic effect, microscopy) (SARS-CoV-2 [2]; therapeutic setting, CX-1 added after 30 min infection, 48 h post infection (FIG. 2))	reduction in viral genome copy number (SARS-CoV-2 [3]; 50 μM CX-1, preventive setting (FIG. 3)) [%]	viral particle number, Sample #1 (SARS-CoV-2 [3]; [8]) [viral particle number/μl]	viral particle number, Sample #2 (SARS-CoV-2 [3]; [8]) [viral particle number/μl]	viral particle number, Sample #3 (SARS-CoV-2 [3]; [8]) [viral particle number/μl]	viral particle number, average (SARS-CoV-2 [3]; [8]) [viral particle number/μl]	viral particle number, Sample #1 (SARS-CoV-2 [3]; [9]) [viral particle number/μl]	viral particle number, Sample #2 (SARS-CoV-2 [3]; [9]) [viral particle number/μl]	viral particle number, Sample #3 (SARS-CoV-2 [3]; [9]) [viral particle number/μl]	viral particle number, average (SARS-CoV-2 [3]; [9]) [viral particle number/μl]	potency (reduction in viral particles) (SARS-CoV-2 [3]; CX-1 500 μM, 48 h post-infection, prophylactic setting, versus virus only) [%]	reduction in viral genome copy number (SARS-CoV-2 [3]; lower dilutions of CX-1, preventive setting, versus infected non-treated control (FIG. 3))	cytotoxicity [4]	cilia beating frequency (influenza H1N1 [5])
O=S(=O)(O)c1cc2c(O)c(c1)Cc1cc(S(=O)(=O)O)cc(c1O)Cc1cc(S(=O)(=O)O)cc(c1O)Cc1cc(S(=O)(=O)O)cc(c1O)C2 [C[4]S, tetra-para-sulfonato-calix[4]arene]	only very weak activity	–	–	–	–	–	–	–	–	–	–	–	–	–	–	–	–	–	–	–
O=S(=O)(O)c1cc2c(O)c(c1)Cc1cc(S(=O)(=O)O)cc(c1O)Cc1cc(S(=O)(=O)O)cc(c1O)Cc1cc(S(=O)(=O)O)cc(c1O)C2 [CX-1, 5,11,17,23-sulfonato-25,26,27,28-tetrahydroxycalix[4]arene]	–	−0.9	88	~0.8	80.5	significantly protected from dying	significantly protected from dying	30	0.00	0.00	1.48	0.49	11.10	15.00	8.63	11.57	95	over 90%	no cytotoxicity	significantly higher
1,3-bis(bithiazolyl)-tetra-para-sulfonato-calix[4]arene [C[4]S-BTZ]	very effective	–	–	–	–	–	–	–	–	–	–	–	–	–	–	–	–	–	–	–
